# Measurements published in publication PMC6854577, “Quantitation of Thyroid Hormone Binding to Anti-Thyroxine Antibody Fab Fragment by Native Mass Spectrometry” (ACS Omega, 2019).
# Where “and” joins values, the source holds several entries; their conditions need not be identical. Equal values may be shown once.
# What was measured:
# [1] = biological target: anti-T4 antibody Fab fragment; experiment: Native MS (ESI FT-ICR) ligand competition with T2 as low-affinity reference ligand; format: binding, mouse; details: for binding affinity (in words): native MS
# Method: All mass spectrometric experiments were performed by using a 12-T Bruker solariX XR Fourier transform ion cyclotron resonance (FT-ICR) instrument (Bruker Daltonics, Bremen, Germany) equipped with an electrospray ionization (ESI) source (Apollo-II). Mass spectra were obtained in a positive ion mode, and the samples were directly infused to the ion source at a flow rate of 2 μL min^–1. Dry nitrogen was used as nebulizing (4.0 L min^–1) and drying (80 °C, 1.0 bar) gas. The ions were accumulated in the hexapole ion trap for 3.5 s and then transferred to the dynamically harmonized ICR cell (Paracell) for trapping, excitation, and detection. The time of flight was set to 3.5 ms. All other instrumental parameters were carefully adjusted to preserve noncovalent interactions in the gas phase. […] The mass spectra were externally calibrated by the ESI Tuning mix (part no. G2431A; Agilent Technologies, Santa Clara, CA). The mass spectra were acquired from m/z 1500 to 5000. The data acquisition was attained by ftmsControl 2.1 software and further processed and analyzed by DataAnalysis 4.2 SR1 software. […]
# To determine the binding affinities for the other ligands, ligand competition experiments were performed.[25],[26] Briefly, T2 was used as the “low-affinity” reference ligand, whose accurate Kd value was determined earlier by the direct ligand titration. The two ligands, competing for the same binding site in anti-T4 Fab, were mixed at the appropriate concentrations (determined earlier by initial screening experiments) with the protein at a fixed concentration of 0.1 μM. Ten replicates were measured for each ligand pair from three different samples.
# A mathematical model to calculate Kd values from the competition experiments was as follows: For L and Lref, competing for a single binding site in P, the two equilibrium reactions are [drawing 2] [drawing 3] where P is the receptor protein, L is the ligand, and Lref is the “low-affinity” reference ligand. Briefly, the intensity ratio (R) of the total abundance of the ligand-bound protein (PL) and free protein (P) was calculated for each spectrum. The affinity measurement for the “low-affinity” ligand (Lref) was performed by a direct titration method. The individual Kd values for L and Lref are derived as [drawing 4] 2 [drawing 5] 3 where the brackets represent equilibrium concentrations of L, Lref, P, PL, and PLref. The mass balance equations at equilibrium are [drawing 6] 4 [drawing 7] 5 [drawing 8] 6 where [P]total, [L]total, and [Lref]total are the total protein, ligand, and reference ligand concentrations, respectively.
# At equilibrium, [P] is the same for both ligands, and thus, eqs. […] were simplified to [drawing 9] 7
# The ESI-MS spectrum directly provides normalized intensities (“concentration coefficients”) i(P), i(PL), and i(PLref), such that their sum equals 1, which can then be used to calculate equilibrium concentrations by eqs 8, 9, and 10: [drawing 10] 8 [drawing 11] 9 [drawing 12] 10 These calculations are valid if one assumes that the ionization and ion transmission efficiencies for P, PL, and PLref are the same (they are if mL ≈ mLref ≪ mP, which is true in this case), and there is no complex dissociation upon ionization/desolvation stages (i.e., careful adjustments of instrumental parameters). The intensities should be calculated as integrated sums of different charge states to avoid any bias resulting from different CSDs between the free and bound proteins. The free ligand concentrations, [L] and [Lref], can be obtained from eqs 5 and 6. The equilibrium concentrations [L], [Lref], [PL], and [PLref] as well as the predetermined/known Kd(Lref) can be inserted into eq 7 to calculate Kd(L).
# [2] = biological target: anti-T4 antibody Fab fragment; experiment: Native MS initial ligand screening (approximate affinities, stoichiometry); format: binding, mouse; details: 0.1 μM Fab; for approximate binding affinity: initial ligand screening
# Method: All mass spectrometric experiments were performed by using a 12-T Bruker solariX XR Fourier transform ion cyclotron resonance (FT-ICR) instrument (Bruker Daltonics, Bremen, Germany) equipped with an electrospray ionization (ESI) source (Apollo-II). Mass spectra were obtained in a positive ion mode, and the samples were directly infused to the ion source at a flow rate of 2 μL min^–1. Dry nitrogen was used as nebulizing (4.0 L min^–1) and drying (80 °C, 1.0 bar) gas. The ions were accumulated in the hexapole ion trap for 3.5 s and then transferred to the dynamically harmonized ICR cell (Paracell) for trapping, excitation, and detection. The time of flight was set to 3.5 ms. All other instrumental parameters were carefully adjusted to preserve noncovalent interactions in the gas phase. […] The mass spectra were externally calibrated by the ESI Tuning mix (part no. G2431A; Agilent Technologies, Santa Clara, CA). The mass spectra were acquired from m/z 1500 to 5000. The data acquisition was attained by ftmsControl 2.1 software and further processed and analyzed by DataAnalysis 4.2 SR1 software. All native MS experiments were performed in 20 mM aqueous ammonium acetate (pH 6.9) solution.
# First, the approximate binding affinities of thyroid hormones and tetrahalogen bisphenols to anti-T4 Fab were determined via initial screening experiments (Figures S1–S7).
# [3] = biological target: anti-T4 antibody Fab fragment; experiment: Native MS (ESI FT-ICR) direct ligand titration; format: binding, mouse; details: 0.005-2.0 μM T2, 0.1 μM Fab
# Method: All mass spectrometric experiments were performed by using a 12-T Bruker solariX XR Fourier transform ion cyclotron resonance (FT-ICR) instrument (Bruker Daltonics, Bremen, Germany) equipped with an electrospray ionization (ESI) source (Apollo-II). Mass spectra were obtained in a positive ion mode, and the samples were directly infused to the ion source at a flow rate of 2 μL min^–1. Dry nitrogen was used as nebulizing (4.0 L min^–1) and drying (80 °C, 1.0 bar) gas. The ions were accumulated in the hexapole ion trap for 3.5 s and then transferred to the dynamically harmonized ICR cell (Paracell) for trapping, excitation, and detection. The time of flight was set to 3.5 ms. […] The data acquisition was attained by ftmsControl 2.1 software and further processed and analyzed by DataAnalysis 4.2 SR1 software. […]
# A direct ligand titration[9],[22],[23] was used to determine the binding constant for the “low-affinity” reference ligand. […] The fractional saturation (Y) of the protein was calculated from the intensity ratio of the protein–ligand complex (PL) and free protein (P) for every single ligand (L) concentration (intensities averaged over different charge states), and the data were fitted into the specific, single-site binding model[24] […] Five replicate samples were prepared and measured for each T2 concentration. […]
# [4] = system: anti-T4 Fab; set-up: method as in PMID 9095353, PMID 9460543; details: SPR, cited from earlier work
# [5] = biological target: THRα1; set-up: method as in PMID 15466465; details: cited from earlier work
# [6] = 0.1 μM Fab, 20 mM ammonium acetate pH 6.8, ligand and reference ligand (T2) concentrations per Table 1, mean ± SD, 10 replicates of three samples, read-out: Kd
# [7] = T4/T2 0.14/0.5 μM, T3/T2 0.14/0.5 μM, T0/T2 15/0.05 μM, 0.1 μM Fab, read-out: Kd (self-validation at second ligand concentrations)
Compound,"Kd [1, 6] [nM]","Kd [1, 7] [nM]",approximate binding affinity [2],binding affinity (in words) ([1]; anti-T4 Fab),also measured
"N[C@@H](Cc1ccc(Oc2ccc(O)cc2)cc1)C(=O)O [T0, L-thyronine]",130000,174000,submicromolar to micromolar affinity range,–,"binding affinity relative to T3 ([1]; anti-T4 Fab, native MS Kd values compared): approximately five orders of magnitude lower; Kd ([1]; competition with T2 as reference ligand, as given in the abstract, read-out: Kd): 130000 nM"
"N[C@@H](Cc1ccc(Oc2ccc(O)c(I)c2)c(I)c1)C(=O)O [T2, 3,3′-diiodo-L-thyronine]",–,–,submicrometer range,–,"Kd ([3]; 20 mM ammonium acetate pH 6.8): 260 nM; Kd ([3]; 20 mM ammonium acetate pH 6.8, one-site binding fit, five replicates): 263 nM and 260 nM; binding ([4]; within the Kd range accessible by the technique): did not show any binding"
"CC(C)(c1cc(Cl)c(O)c(Cl)c1)c1cc(Cl)c(O)c(Cl)c1 [TCB, tetrachlorobisphenol-A]",7800,–,submicromolar to micromolar affinity range,–,ligand saturation ([2]; ligand added until saturation): saturative binding was not observed even at a molar ligand excess of 200
"CC(C)(c1cc(I)c(O)c(I)c1)c1cc(I)c(O)c(I)c1 [TIB, tetraiodobisphenol-A]",11,–,submicromolar to micromolar affinity range,nanomolar binding affinities,–

# Second part, led by results:
"Kd [1, 6] [nM]","Kd [1, 7] [nM]",Compound,approximate binding affinity [2],binding affinity (in words) ([1]; anti-T4 Fab),also measured
29,23.9,"N[C@@H](Cc1cc(I)c(Oc2cc(I)c(O)c(I)c2)c(I)c1)C(=O)O [T4, L-thyroxine]",low nanomolar binding affinities,–,Kd [5]: 2 nM; affinity relative to T3 [4]: approximately 10 times
87,–,"CC(C)(c1cc(Br)c(O)c(Br)c1)c1cc(Br)c(O)c(Br)c1 [TBB, tetrabromobisphenol-A]",submicromolar to micromolar affinity range,nanomolar binding affinities,–
